From PMC7413254 (Nature Communications, 2020)

Columns and labels:
Type in all cases: cell-based
PfCRT^Ecu1110 [1] = target: T1, PfCRT^Ecu1110 (Plasmodium falciparum, UniProt Q9N623, A220S/I356L/K76T/N326D); test: [3H]CQ uptake into Xenopus oocytes, cis-inhibition by unlabelled solute; details: for PfCRT-mediated [3H]CQ transport, cis-inhibition (% PfCRTEcu1110 control): PfCRTEcu1110 oocytes, background [3H]CQ accumulation subtracted, normalised to oocyte type control; for [3H]CQ transport (% PfCRTEcu1110 control), cis-inhibition, PfCRTEcu1110: PfCRT-mediated component (background subtracted), sheet title says normalised to PfCRTDd2 control, mean ± SEM, SEM
How it was run: (§1)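 Each treatment used ten oocytes, repeated in at least four experiments on different days with oocytes from different frogs. Conditions: ND96 pH 5.5, 27.5 °C, 1.5 h; read-out by scintillation counting.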

PfCRT^Dd2 [2] = target: T2, PfCRT^Dd2 (Plasmodium falciparum, UniProt Q9N623, A220S/I356T/K76T/M74I/N326S/N75E/Q271E/R371I); test: as above; details: PfCRTDd2 oocytes, background [3H]CQ accumulation subtracted, normalised to oocyte type control
How it was run: as §1

PfCRT^Ecu1110 [3] = target: T1, PfCRT^Ecu1110; test: cell-based; details: for PfCRT-mediated [3H]CQ transport, trans-stimulation (% PfCRTEcu1110 control): PfCRTEcu1110 oocytes, normalised to oocyte type control; for [3H]CQ transport (% PfCRTDd2 control), trans-stimulation, PfCRTEcu1110: PfCRT-mediated component (background subtracted), sheet title says normalised to PfCRTDd2 control, mean ± SEM, SEM
How it was run: (§2)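 Oocytes (ten per treatment, ≥4 independent frogs/days) were preloaded by injecting VF-6 in 25 nL ND96 at pH 5.0, 5.5, 6.0 or 7.0, or Na^+-free choline buffer, then uptake run 1.5 h, 27.5 °C, ND96 pH 5.5 by default. Internal concentrations assumed ~400 nL oocyte volume.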

PfCRT^3D7 = PfCRT^3D7 (Plasmodium falciparum, UniProt Q8IBZ9); test: cell-based; details: PfCRT3D7 oocytes, normalised to oocyte type control
How it was run: as §2

PfCRT^Dd2 [4] = target: T2, PfCRT^Dd2; test: cell-based; details: for PfCRT-mediated [3H]CQ transport, trans-stimulation (% PfCRTDd2 control): PfCRTDd2 oocytes, normalised to oocyte type control; for [3H]CQ transport (% PfCRTDd2 control), trans-stimulation, PfCRTDd2: PfCRT-mediated component (background subtracted), mean ± SEM, SEM
How it was run: as §2

[5] = [test solute]i = 5 mM (intracellular)
[6] = [test solute]i = 45 mM (intracellular; 30 mM for some solutes due to solubility)
[7] = [test solute]i = 5 mM (injected)
[8] = [test solute]i = 45 mM (30 mM for some solutes due to solubility)

T2 sequence (Q9N623 whole entry A220S/I356T/K76T/M74I/N326S/N75E/Q271E/R371I): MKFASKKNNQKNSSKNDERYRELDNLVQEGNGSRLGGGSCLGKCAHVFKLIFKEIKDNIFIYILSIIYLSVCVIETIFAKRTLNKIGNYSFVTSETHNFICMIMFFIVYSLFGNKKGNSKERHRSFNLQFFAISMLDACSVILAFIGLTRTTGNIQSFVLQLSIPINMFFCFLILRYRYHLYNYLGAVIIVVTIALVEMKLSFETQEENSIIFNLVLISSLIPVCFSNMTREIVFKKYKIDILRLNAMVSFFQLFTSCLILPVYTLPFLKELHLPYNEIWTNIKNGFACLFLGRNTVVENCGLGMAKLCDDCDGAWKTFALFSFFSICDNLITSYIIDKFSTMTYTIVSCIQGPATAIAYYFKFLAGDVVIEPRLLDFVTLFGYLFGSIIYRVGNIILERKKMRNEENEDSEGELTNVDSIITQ
T1 sequence (Q9N623 whole entry A220S/I356L/K76T/N326D): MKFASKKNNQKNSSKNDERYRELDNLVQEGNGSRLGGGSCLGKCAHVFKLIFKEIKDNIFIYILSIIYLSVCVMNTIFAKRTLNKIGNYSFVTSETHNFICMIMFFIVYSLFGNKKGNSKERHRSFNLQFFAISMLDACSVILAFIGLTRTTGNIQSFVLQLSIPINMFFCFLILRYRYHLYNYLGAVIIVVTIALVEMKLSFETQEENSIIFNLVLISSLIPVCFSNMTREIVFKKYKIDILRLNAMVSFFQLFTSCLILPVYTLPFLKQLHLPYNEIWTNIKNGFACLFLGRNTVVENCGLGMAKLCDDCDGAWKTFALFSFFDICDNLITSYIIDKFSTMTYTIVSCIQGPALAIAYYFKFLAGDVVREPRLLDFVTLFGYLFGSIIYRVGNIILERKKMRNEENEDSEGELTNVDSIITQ
PfCRT^3D7, sequence (Q8IBZ9 59-398): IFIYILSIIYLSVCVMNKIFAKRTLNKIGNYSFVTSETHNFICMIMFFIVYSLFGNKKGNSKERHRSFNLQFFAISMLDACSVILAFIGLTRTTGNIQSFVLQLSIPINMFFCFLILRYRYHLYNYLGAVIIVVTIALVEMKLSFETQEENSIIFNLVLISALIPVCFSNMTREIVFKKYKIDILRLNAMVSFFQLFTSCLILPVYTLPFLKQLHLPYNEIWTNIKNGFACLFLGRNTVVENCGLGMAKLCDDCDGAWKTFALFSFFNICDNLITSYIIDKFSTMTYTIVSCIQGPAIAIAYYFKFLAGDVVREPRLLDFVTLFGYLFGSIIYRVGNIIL

Substance	PfCRT-mediated [3H]CQ transport, cis-inhibition (% PfCRTEcu1110 control) (PfCRT^Ecu1110 [1]; [test solute] = 0.5 mM)	PfCRT-mediated [3H]CQ transport, cis-inhibition (% PfCRTEcu1110 control) (PfCRT^Ecu1110 [1]; [test solute] = 1 mM)	PfCRT-mediated [3H]CQ transport, cis-inhibition (% PfCRTEcu1110 control) (PfCRT^Ecu1110 [1]; [test solute] = 2 mM)	[3H]CQ transport (% PfCRTEcu1110 control), cis-inhibition, PfCRTEcu1110 (PfCRT^Ecu1110 [1]; [test solute] = 2 mM)	PfCRT-mediated [3H]CQ transport, cis-inhibition (% PfCRTDd2 control) (PfCRT^Dd2 [2]; [test solute] = 0.5 mM)	PfCRT-mediated [3H]CQ transport, cis-inhibition (% PfCRTDd2 control) (PfCRT^Dd2 [2]; [test solute] = 1 mM)	PfCRT-mediated [3H]CQ transport, cis-inhibition (% PfCRTDd2 control) (PfCRT^Dd2 [2]; [test solute] = 2 mM)	PfCRT-mediated [3H]CQ transport, trans-stimulation (% PfCRTEcu1110 control) (PfCRT^Ecu1110 [3]; [5])	PfCRT-mediated [3H]CQ transport, trans-stimulation (% PfCRTEcu1110 control) (PfCRT^Ecu1110 [3]; [6])	[3H]CQ transport (% PfCRTDd2 control), trans-stimulation, PfCRTEcu1110 (PfCRT^Ecu1110 [3]; [7])	[3H]CQ transport (% PfCRTDd2 control), trans-stimulation, PfCRTEcu1110 (PfCRT^Ecu1110 [3]; [8])	PfCRT-mediated [3H]CQ transport, trans-stimulation (% PfCRT3D7 control) (PfCRT^3D7; [5])	PfCRT-mediated [3H]CQ transport, trans-stimulation (% PfCRT3D7 control) (PfCRT^3D7; [6])	PfCRT-mediated [3H]CQ transport, trans-stimulation (% PfCRTDd2 control) (PfCRT^Dd2 [4]; [5])	PfCRT-mediated [3H]CQ transport, trans-stimulation (% PfCRTDd2 control) (PfCRT^Dd2 [4]; [6])	[3H]CQ transport (% PfCRTDd2 control), trans-stimulation, PfCRTDd2 (PfCRT^Dd2 [4]; [7])	[3H]CQ transport (% PfCRTDd2 control), trans-stimulation, PfCRTDd2 (PfCRT^Dd2 [4]; [8])	[3H]CQ transport (% PfCRTEcu1110 control), cis-inhibition, PfCRTEcu1110 (PfCRT^Ecu1110 [1]; [test solute] = 1 mM)
PHFDLS [PS-6]	41 ± 2.5 % PfCRTEcu1110 control	33 ± 1.7 % PfCRTEcu1110 control	21 ± 1.6 % PfCRTEcu1110 control	7.0 ± 0.01 % PfCRTEcu1110 control	46 ± 1.0 % PfCRTDd2 control	32 ± 1.1 % PfCRTDd2 control	17 ± 0.3 % PfCRTDd2 control	121 ± 4.5 % PfCRTEcu1110 control	138 ± 4.6 % PfCRTEcu1110 control	37 ± 1.4 % PfCRTEcu1110 control	43 ± 1.3 % PfCRTEcu1110 control	140 ± 4.3 % PfCRT3D7 control	188 ± 4.5 % PfCRT3D7 control	96 ± 4.7 % PfCRTDd2 control	95 ± 4.6 % PfCRTDd2 control	96 ± 4.7 % PfCRTDd2 control	95 ± 4.6 % PfCRTDd2 control	–
PNALS [PS-5, host-derived peptide upstream of PL-4]	50 ± 2.5 % PfCRTEcu1110 control	42 ± 1.8 % PfCRTEcu1110 control	29 ± 1.1 % PfCRTEcu1110 control	9.0 ± 0.01 % PfCRTEcu1110 control	–	30 ± 2.7 % PfCRTDd2 control	19 ± 0.3 % PfCRTDd2 control	127 ± 2.6 % PfCRTEcu1110 control	136 ± 4.6 % PfCRTEcu1110 control	38 ± 1.5 % PfCRTEcu1110 control	41 ± 2.2 % PfCRTEcu1110 control	131 ± 6.2 % PfCRT3D7 control	180 ± 3.6 % PfCRT3D7 control	99 ± 4.6 % PfCRTDd2 control	96 ± 4.1 % PfCRTDd2 control	99 ± 4.6 % PfCRTDd2 control	96 ± 4.1 % PfCRTDd2 control	13 ± 0.1 % PfCRTEcu1110 control
